Calls of active or inactive are those of the source. The rule behind the calls is not given here.
Tests used:
COLO 205 [1] = experiment: Antiproliferative against human COLO 205 cells assessed as cell viability after 4 days by CCK-8 assay; format: functional, cell-based; conditions: COLO 205, 96 h
[2] = target: T1, Dual specificity protein kinase TTK (Homo sapiens, UniProt P33981); experiment: Binding affinity to human TTK expressed in bacterial expression system assessed as dissociation constant at 100 nM by biochemical assay
T1 sequence (P33981 whole entry): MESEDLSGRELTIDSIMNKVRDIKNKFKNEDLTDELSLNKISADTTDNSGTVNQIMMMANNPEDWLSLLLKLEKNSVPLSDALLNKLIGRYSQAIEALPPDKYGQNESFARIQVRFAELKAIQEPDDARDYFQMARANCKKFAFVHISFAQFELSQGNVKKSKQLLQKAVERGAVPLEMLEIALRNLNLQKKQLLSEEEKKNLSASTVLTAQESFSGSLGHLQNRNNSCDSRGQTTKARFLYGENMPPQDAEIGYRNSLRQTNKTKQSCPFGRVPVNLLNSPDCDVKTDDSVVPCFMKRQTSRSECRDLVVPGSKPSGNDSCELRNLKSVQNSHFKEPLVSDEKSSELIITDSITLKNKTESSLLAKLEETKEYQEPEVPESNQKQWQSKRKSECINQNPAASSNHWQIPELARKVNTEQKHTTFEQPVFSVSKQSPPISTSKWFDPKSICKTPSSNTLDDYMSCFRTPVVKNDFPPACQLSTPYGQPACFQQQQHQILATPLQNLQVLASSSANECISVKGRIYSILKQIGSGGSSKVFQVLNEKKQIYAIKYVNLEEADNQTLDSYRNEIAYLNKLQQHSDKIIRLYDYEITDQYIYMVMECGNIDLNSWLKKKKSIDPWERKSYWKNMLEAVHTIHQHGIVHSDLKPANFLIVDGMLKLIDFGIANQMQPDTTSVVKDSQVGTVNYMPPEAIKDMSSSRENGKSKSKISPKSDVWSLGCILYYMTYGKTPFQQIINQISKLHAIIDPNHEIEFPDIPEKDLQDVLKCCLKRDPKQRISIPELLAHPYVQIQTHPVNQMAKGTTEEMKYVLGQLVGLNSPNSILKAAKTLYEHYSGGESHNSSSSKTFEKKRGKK

[3] = Half life in Sprague-Dawley rat at 10 mg/kg, ip by LC-MS/MS analysis; format: ADME, organism-based; conditions: in vivo
[4] = AUC in Sprague-Dawley rat at 10 mg/kg, ip by LC-MS/MS analysis; format: ADME, organism-based; set-up: dose 10 mg/kg; conditions: in vivo
[5] = target: T2, Protein cereblon/Dual specificity protein kinase TTK (Homo sapiens, UniProt P33981+Q96SW2); experiment: Protac activity at CRBN/TTK in human COLO 205 cells assessed as TTK degradation by measuring maximum degradation after 6 hrs by Western blotting analysis relative to control; format: cell-based
Target sequence in this assay (Q96SW2 whole entry, looked up, one chain of several): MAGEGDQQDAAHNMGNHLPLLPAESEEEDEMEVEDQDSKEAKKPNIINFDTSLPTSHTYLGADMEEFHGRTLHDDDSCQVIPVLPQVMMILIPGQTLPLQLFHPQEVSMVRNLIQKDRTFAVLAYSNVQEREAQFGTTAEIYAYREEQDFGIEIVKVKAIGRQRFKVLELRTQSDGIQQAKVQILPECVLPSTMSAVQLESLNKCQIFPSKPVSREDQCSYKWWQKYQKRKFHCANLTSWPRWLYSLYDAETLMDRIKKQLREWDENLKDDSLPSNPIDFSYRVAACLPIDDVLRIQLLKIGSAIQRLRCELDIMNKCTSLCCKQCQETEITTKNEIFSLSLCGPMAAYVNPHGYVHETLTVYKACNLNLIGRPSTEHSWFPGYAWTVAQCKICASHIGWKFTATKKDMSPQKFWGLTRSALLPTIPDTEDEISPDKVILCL

[6] = target: T2, Protein cereblon/Dual specificity protein kinase TTK; experiment: Protac activity at CRBN/TTK in human COLO 205 cells assessed as degradation of TTK measured after 6 hrs by Western blotting analysis; format: cell-based
Target sequence in this assay (Q96SW2 whole entry, one chain of several): as the sequence (Q96SW2 whole entry, looked up, one chain of several) above

[7] = target: T2, Protein cereblon/Dual specificity protein kinase TTK; experiment: Protac activity at CRBN/TTK in human HCT-116 cells assessed as degradation of TTK measured after 6 hrs by Western blotting analysis; format: cell-based
Target sequence in this assay (Q96SW2 whole entry, one chain of several): as the sequence (Q96SW2 whole entry, looked up, one chain of several) above

[8] = target: T2, Protein cereblon/Dual specificity protein kinase TTK; experiment: Protac activity at CRBN/TTK in human HCT-116 cells assessed as TTK degradation by measuring maximum degradation after 6 hrs by Western blotting analysis relative to control; format: cell-based
Target sequence in this assay (Q96SW2 whole entry, looked up, one chain of several): as above

[9] = target: T2, Protein cereblon/Dual specificity protein kinase TTK; experiment: Protac activity at CRBN/TTK in human LoVo cells assessed as degradation of TTK measured at […] for 6 hrs by Western blotting analysis; format: cell-based; conditions: dose lower 5.0 µM
Target sequence in this assay (Q96SW2 whole entry, looked up, one chain of several): as above

[10] = target: T2, Protein cereblon/Dual specificity protein kinase TTK; experiment: Protac activity at CRBN/TTK in human HCT-8 cells assessed as degradation of TTK measured at […] for 6 hrs by Western blotting analysis; format: cell-based; conditions: dose lower 5.0 µM
Target sequence in this assay (Q96SW2 whole entry, looked up, one chain of several): as above

[11] = target: T2, Protein cereblon/Dual specificity protein kinase TTK; experiment: Protac activity at CRBN/TTK in human […] cells assessed as degradation of TTK measured at […] for 6 hrs by Western blotting analysis; format: cell-based; conditions: dose lower 5.0 µM
Target sequence in this assay (Q96SW2 whole entry, looked up, one chain of several): as above

LoVo = experiment: Antiproliferative against human LoVo cells assessed as cell viability at 0.0001 to 100 uM at day 4 by CCK-8 assay; format: functional, cell-based; conditions: dose 0.0001-100 µM
HCT-8 = experiment: Antiproliferative against human HCT-8 cells assessed as cell viability at 0.0001 to 100 uM at day 4 by CCK-8 assay; format: functional, cell-based; conditions: dose 0.0001-100 µM
HCT-29 = experiment: Antiproliferative against human […] cells assessed as cell viability at 0.0001 to 100 uM at day 4 by CCK-8 assay; format: functional, cell-based; conditions: dose 0.0001-100 µM
[12] = target: T2, Protein cereblon/Dual specificity protein kinase TTK; experiment: Protac activity at CRBN/TTK in human COLO 205 cells assessed as induction of TTK degradation at 5 nM after 6 to 8 hrs post washout by Western blot analysis; format: cell-based; conditions: time 6-8 hrs
Target sequence in this assay (Q96SW2 whole entry, looked up, one chain of several): as above

[13] = target: T2, Protein cereblon/Dual specificity protein kinase TTK; experiment: Protac activity at CRBN/TTK in human COLO 205 cells assessed as induction of TTK degradation at 5 nM after 16 hrs post washout by Western blot analysis; format: cell-based
[14] = target: T2, Protein cereblon/Dual specificity protein kinase TTK; experiment: Protac activity at CRBN/TTK in human COLO 205 cells assessed as induction of TTK degradation in presence of N-[4-[2-[2-methoxy-4-(4-methylpiperazin-1-yl)anilino]-5-methyl-7-oxo-pyrido[2,3-d]pyrimidin-8-yl]cyclohexyl]propanamide after 6 hrs by Western blotting relative to control; format: cell-based
[15] = target: T2, Protein cereblon/Dual specificity protein kinase TTK; experiment: Protac activity at CRBN/TTK in human COLO 205 cells assessed as induction of TTK degradation in presence of MG132 incubated for 1 hr by Western blotting analysis relative to control; format: cell-based
[16] = target: T2, Protein cereblon/Dual specificity protein kinase TTK; experiment: In vivo protac activity at CRBN/TTK in human COLO-205 cells xenografted in CB17-SCID mouse at 10 to 20 mg/kg, ip daily for 16 days by western blotting analysis; format: organism-based; conditions: dose 10-20 mg/kg, time 16.0 day
COLO 205 [17] = experiment: Antitumor activity against human COLO205 cells xenografted in CB17-SCID mouse assessed as tumor growth inhibition at 20 mg/kg, ip daily for 16 days relative to control; format: functional; conditions: COLO 205, ip, 384 h, time 16 day, read-out: TGI
[18] = Toxicity in CB17-SCID mouse xenografted with human […] cells assessed as effect on body weight at 10 to 20 mg/kg, ip daily for 16 days; format: organism-based, COLO 205; conditions: in vivo, 384 h, dose 10-20 mg/kg, time 16 day
COLO 205 [19] = experiment: Antitumor activity against human COLO205 cells xenografted in CB17-SCID mouse assessed as tumor growth inhibition at 10 mg/kg, ip daily for 16 days relative to control; format: functional, organism-based; conditions: time 16.0 day

Row | SMILES | IC50 (COLO 205 [1]) [nM] | half-life [3] [h] | AUC [4] [ng·h/mL] | Emax [5] [%] | DC50 [6] [nM] | DC50 [7] [nM] | Emax [8] [%] | Activity [9] | Activity [10] | Activity [11] | Activity (LoVo) | Activity (HCT-8) | Activity (HCT-29) | Activity [12] | Activity [13] | Activity [14] | Activity [15] | Activity [16] | inhibition in vivo at 20 mg/kg (COLO 205 [17]) [%] | Activity [18] | other results
1 | CCC(=O)N[C@H]1CC[C@@H](n2c(=O)cc(C)c3cnc(Nc4ccc(N5CCN(C)CC5)cc4OC)nc32)CC1 | 800 |  |  |  |  |  |  |  |  |  |  |  |  |  |  |  |  |  |  |  | Kd [2]: 0.7 nM
2 | CCC(=O)N[C@H]1CC[C@@H](n2c(=O)cc(C)c3cnc(Nc4ccc(N5CCN(C(=O)CCCCCC#Cc6ccc7c(c6)C(=O)N(C6CCC(=O)NC6=O)C7)CC5)cc4OC)nc32)CC1 (some centres undefined) | 200 | 3.2 | 2330 | 82 | 3.1 | 12.4 | 77 | Dose-Dependent Effect | Dose-Dependent Effect | Dose-Dependent Effect | Dose-Dependent Effect | Dose-Dependent Effect | Dose-Dependent Effect | Active | inactive | inactive | inactive | Active | 36.7 | Non-Toxic | Activity (COLO 205 [19]): inactive
3 | CCC(=O)N[C@H]1CC[C@@H](n2c(=O)cc(C)c3cnc(Nc4ccc(N5CCN(C(=O)CCCC#Cc6ccc7c(c6)CN(C6CCC(=O)NC6=O)C7=O)CC5)cc4OC)nc32)CC1 (some centres undefined) | 100 | 4.3 | 2240 | 88 | 1.7 | 5.8 | 80 | Dose-Dependent Effect | Dose-Dependent Effect | Dose-Dependent Effect | Dose-Dependent Effect | Dose-Dependent Effect | Dose-Dependent Effect | Active | inactive | inactive | inactive | Active | 46 | Non-Toxic | Activity (COLO 205 [19]): inactive
